Assay results from the supplement of paper PMC10702517.
± gives the standard deviation.

Test: chemical recovery from spiked human plasma; higher = better extraction
Settings: pooled human plasma
[1] = extraction method: PES+SPE (3 d PDMS equilibration then HLB SPE)
[2] = extraction method: SPE only (HLB 96-well)
[3] = extraction method: solvent precipitation (ACN + hexane)
[4] = extraction method: SPE only (HLB 96-well), PES comparison experiment

Compound | chemical recovery [1] [%] | chemical recovery [4] [%] | chemical recovery [2] [%] | chemical recovery [3] [%]
CCCC(C)C1(CC)C(=O)NC(=O)NC1=O (stereo not given) [Pentobarbital] | 49.6 ± 5.1 | – | 43.8 ± 2 | 75.7 ± 6.9
O=S(=O)(O)C(F)(F)C(F)(F)C(F)(F)C(F)(F)F [Perfluorobutanesulfonic-acid] | 49.5 ± 3.7 | – | 45.3 ± 3.3 | 81.9 ± 2.1
O=S(=O)(O)C(F)(F)C(F)(F)C(F)(F)C(F)(F)C(F)(F)C(F)(F)C(F)(F)F [Perfluoroheptanesulfonic-acid] | 38.6 ± 6.2 | – | 35.6 ± 2 | 61.6 ± 3.8
O=S(=O)(O)C(F)(F)C(F)(F)C(F)(F)C(F)(F)C(F)(F)C(F)(F)F [Perfluorohexanesulfonic-acid] | 40.9 ± 4.1 | – | 34.4 ± 2.7 | –
O=C(O)C(F)(F)C(F)(F)C(F)(F)C(F)(F)C(F)(F)F [Perfluorohexanoic acid] | 40.2 ± 4.7 | 44.4 ± 8.7 | 35.5 ± 3.9 | 75.3 ± 4.1
O=P(O)(O)C(F)(F)C(F)(F)C(F)(F)C(F)(F)C(F)(F)C(F)(F)F [Perfluorohexylphosphonic-acid] | 37.5 ± 6 | – | 31.2 ± 4.6 | 26.7 ± 9.3
O=C(O)C(F)(F)C(F)(F)C(F)(F)C(F)(F)C(F)(F)C(F)(F)C(F)(F)C(F)(F)F [Perfluorononanoic-acid] | – | – | 8.32 ± 1.8 | 66.3 ± 5.1
NS(=O)(=O)C(F)(F)C(F)(F)C(F)(F)C(F)(F)C(F)(F)C(F)(F)C(F)(F)C(F)(F)F [Perfluorooctanesulfonamide] | – | 38.8 ± 9.3 | 32 ± 4.9 | –
O=S(=O)(O)C(F)(F)C(F)(F)C(F)(F)C(F)(F)C(F)(F)C(F)(F)C(F)(F)C(F)(F)F [Perfluorooctanesulfonic acid] | – | – | 26.8 ± 0.38 | –
O=C(O)C(F)(F)C(F)(F)C(F)(F)C(F)(F)C(F)(F)C(F)(F)C(F)(F)F [Perfluorooctanoic acid] | – | 33.6 ± 8.8 | 30.2 ± 2.8 | 89.3 ± 19
O=S(=O)(O)C(F)(F)C(F)(F)C(F)(F)C(F)(F)C(F)(F)F [Perfluoropentanesulfonic-acid] | 47.1 ± 4.2 | – | 36.5 ± 4.8 | 72.9 ± 3.6
O=C(O)C(F)(F)C(F)(F)F [Perfluoropropanoic-acid] | 2.17 ± 0.57 | – | 3.57 ± 2.9 | 86.2 ± 7.5
O=C(O)C(F)(F)C(F)(F)C(F)(F)C(F)(F)C(F)(F)C(F)(F)C(=O)O [Perfluorosuberic-acid-] | 0.975 ± 0.36 | – | 5.56 ± 1.8 | 71.9 ± 7.3
O=C(O)C(F)(F)C(F)(F)C(F)(F)C(F)(F)C(F)(F)C(F)(F)C(F)(F)C(F)(F)C(F)(F)C(F)(F)C(F)(F)C(F)(F)C(F)(F)F [Perfluorotetradecanoic acid] | – | – | – | 41.3 ± 11
O=C(O)C(F)(F)C(F)(F)C(F)(F)C(F)(F)C(F)(F)C(F)(F)C(F)(F)C(F)(F)C(F)(F)C(F)(F)F [Perfluoroundecanoic-acid] | – | – | 26.8 ± 6 | –
CC1(C)C(C=C(Cl)Cl)C1C(=O)OCc1cccc(Oc2ccccc2)c1 (stereo not given) [Permethrin] | 55 ± 9.7 | – | 2.59 ± 1 | 35.4 ± 3.1
NCCc1ccccc1 [Phenethylamine] | – | – | 6.63 ± 4.2 | 47.1 ± 1.7
c1ccc2c(c1)Nc1ccccc1S2 [Phenothiazine] | – | – | – | 41.2 ± 4.4
NNc1ccccc1 [Phenylhydrazine] | – | – | – | 40.7 ± 8.9
CCOP(=S)(OCC)SCSCC [Phorate] | 0.327 ± 0.035 | – | 10.2 ± 3.3 | 37.8 ± 3.6
N#Cc1ccccc1C#N [Phthalonitrile] | – | – | 8.49 ± 8.2 | –
Nc1c(Cl)c(Cl)nc(C(=O)O)c1Cl [Picloram] | 29.5 ± 5.1 | – | 34.9 ± 2.7 | 63.3 ± 3.8
CCc1cc(C)cc(CC)c1-c1c(OC(=O)C(C)(C)C)n2n(c1=O)CCOCC2 [Pinoxaden] | 0.0892 ± 0.042 | – | 21.1 ± 3.2 | –
CC(C)C[C@H](CN)CC(=O)O [Pregabalin] | – | – | 8.64 ± 5.9 | 66 ± 7.2
CCCN(CCOc1c(Cl)cc(Cl)cc1Cl)C(=O)NC=O [Prochloraz BTS445-96] | – | – | – | 71.33 ± 0.59
CC12CC1(C)C(=O)N(c1cc(Cl)cc(Cl)c1)C2=O (stereo not given) [Procymidone] | – | – | 18.9 ± 2.2 | –

Compound | chemical recovery [1] [%] | chemical recovery [4] [%] | chemical recovery [2] [%] | chemical recovery [3] [%]
CCCSP(=O)(OCC)Oc1ccc(Br)cc1Cl (stereo not given) [Profenofos] | – | – | 39.9 ± 5.7 | –
CCCOC(=O)NCCCN(C)C [Propamocarb] | – | – | 6.68 ± 4.3 | 54.9 ± 3.7
C#CCOS(=O)OC1CCCCC1Oc1ccc(C(C)(C)C)cc1 (stereo not given) [Propargite] | – | – | 42.4 ± 10 | –
CNC(=O)Oc1ccccc1OC(C)C [Propoxur] | 33.3 ± 8.7 | – | 37.5 ± 0.59 | 46.7 ± 3.7
CCCN(CCC)C(=O)SCc1ccccc1 [Prosulfocarb] | – | 35.1 ± 6 | 33.6 ± 4.5 | 72.6 ± 6.4
CC1=NNC(=O)N(/N=C/c2cccnc2)C1 [Pymetrozine] | – | – | 13.5 ± 3.4 | 75.4 ± 2.9
Cc1cc(C)nc(Nc2ccccc2)n1 [Pyrimethanil] | 51.1 ± 7.5 | – | 31.2 ± 2.5 | 61.9 ± 3
CC(Oc1ccc(Oc2cnc3cc(Cl)ccc3n2)cc1)C(=O)O (stereo not given) [Quizalofop] | 43.1 ± 5.6 | – | 28.1 ± 1.3 | 67.8 ± 5.7
CNC(=C[N+](=O)[O-])NCCSCc1ccc(CN(C)C)o1 [Ranitidine] | – | – | – | 65.6 ± 6.1
O=C1NS(=O)(=O)c2ccccc21 [Saccharin] | – | – | 38.6 ± 7.1 | –
CC[C@@H](C(=O)[C@@H](C)[C@@H](O)[C@H](C)[C@@H]1O[C@@H]([C@@H](CC)C(=O)O)CC[C@@H]1C)[C@H]1O[C@]2(C=C[C@@H](O)[C@]3(CC[C@@](C)([C@H]4CC[C@](O)(CC)[C@H](C)O4)O3)O2)[C@H](C)C[C@@H]1C [Salinomycin] | – | – | 26.7 ± 6.9 | 51.9 ± 13
CCCC[N+]1(C)[C@H]2CC(OC(=O)C(CO)c3ccccc3)C[C@H]1[C@H]1O[C@H]12 (stereo not given in full) [Scopolamine-N-butyl] | 42.2 ± 2.6 | 44.2 ± 6.1 | 38.4 ± 3.4 | 65.8 ± 3.2
C=CCC1(C(C)CCC)C(=O)NC(=O)NC1=O (stereo not given) [Secobarbital] | 53.8 ± 5 | 61.1 ± 8.4 | 36.7 ± 1.2 | 72.8 ± 5.8
CNC(=O)c1cc(Oc2ccc(NC(=O)Nc3ccc(Cl)c(C(F)(F)F)c3)cc2)ccn1 [Sorafenib] | – | – | 61.3 ± 14 | 74.4 ± 5.8
O=C1C[C@@H]2OCC=C3CN4CC[C@]56c7ccccc7N1[C@H]5[C@H]2[C@H]3C[C@H]46 [Strychnine] | – | – | – | 59.5 ± 4.5
Nc1ccc(S(=O)(=O)Nc2nccs2)cc1 [Sulfathiazole] | – | 51.1 ± 6.3 | 31.1 ± 2.5 | 69.2 ± 3.2
CC(C)(C)C(O)(CCc1ccc(Cl)cc1)Cn1cncn1 (stereo not given) [Tebuconazole] | – | – | – | 77.8 ± 3.1
CCOP(=S)(OCC)SCSC(C)(C)C [Terbufos] | – | – | 14.7 ± 4.8 | –
CCNc1nc(NC(C)(C)C)[nH]c(=O)n1 [Terbuthylazine-2-hydroxy] | 41.4 ± 3.8 | 43.6 ± 5.5 | 35.5 ± 3.4 | 76.7 ± 3.9
CCCC[N+](CCCC)(CCCC)CCCC [Tetrabutylammonium] | – | – | 43 ± 3.8 | –
CCCCCCCCCCCCCCOS(=O)(=O)O [Tetradecylsulfate] | – | – | 28.4 ± 6.5 | 35.5 ± 5.1
CCCCCCCCCCCCCC[N+](C)(C)C [Tetradecyltrimethylammonium] | – | – | 94.4 ± 29 | –
CC[N+](CC)(CC)CC [Tetraethylammonium] | – | – | 1.23 ± 0.72 | –
Cn1cnc2c1c(=O)[nH]c(=O)n2C [Theobromine] | – | – | 77.3 ± 28 | –
Cn1c(=O)c2[nH]cnc2n(C)c1=O [Theophyllin] | – | 95.7 ± 22 | – | 101 ± 6.1
c1ccc2[nH]c(-c3cscn3)nc2c1 [Thiabendazole] | 40.6 ± 4.9 | 49.3 ± 3.5 | 41.3 ± 3 | 80.4 ± 4.5

More lines, main results first:

chemical recovery [1] [%] | chemical recovery [4] [%] | Compound | chemical recovery [2] [%] | chemical recovery [3] [%]
43.5 ± 3.9 | – | O=C(O)C(F)(F)C(F)(F)C(F)(F)OC(F)(F)F [Perfluoro-4-methoxybutanoic-acid] | 36.7 ± 2.8 | 78.7 ± 3.5
32.1 ± 3.4 | – | O=C(O)C(F)(F)C(F)(F)C(F)(F)C(F)(F)F [Perfluoropentanoic-acid] | 31.1 ± 3.3 | 78.1 ± 8.5
43.1 ± 4.2 | 60.3 ± 8.1 | CCC(C(N)=O)(C(N)=O)c1ccccc1 [Phenylethylmalonamide] | 37.2 ± 2.4 | –
0.213 ± 0.049 | – | O=P(O)(O)Oc1ccccc1 [Phenylphosphate] | – | –
42.3 ± 1.6 | – | CC(C)NCC(O)COc1cccc2[nH]ccc12 (stereo not given) [Pindolol] | – | 76 ± 2.5
4.98 ± 1.1 | – | NC(=O)C1(N2CCCCC2)CCN(CCCC(=O)c2ccc(F)cc2)CC1 [Pipamperone] | 28.3 ± 3.7 | 71.4 ± 4.4
31.6 ± 3.5 | 58.6 ± 5.1 | CC[C@H](C)C(=O)O[C@H]1C[C@H](O)C=C2C=C[C@H](C)[C@H](CC[C@@H](O)C[C@@H](O)CC(=O)O)[C@H]21 [Pravastatin] | 28.1 ± 2.9 | 67 ± 6.7
41.5 ± 2.6 | 41.9 ± 4.5 | CCC1(c2ccccc2)C(=O)NCNC1=O [Primidone] | 36.6 ± 3.8 | 76.5 ± 3.6
42.6 ± 6 | – | [O-][n+]1cccc2ccccc21 [Quinoline N-oxide] | 43.8 ± 0.64 | 76.1 ± 3.2
54.6 ± 13 | – | O=C(O)CCCCCCCCC(=O)O [Sebacic-acid] | 48.9 ± 13 | –
20.1 ± 4.3 | – | CCNc1nc(NCC)[nH]c(=O)n1 [Simazine-2-Hydroxy] | 14.8 ± 5.5 | 75.6 ± 6
33.4 ± 2.7 | – | N[C@@H](CC(=O)N1CCn2c(nnc2C(F)(F)F)C1)Cc1cc(F)c(F)cc1F [Sitagliptin] | 30 ± 3.4 | 72.7 ± 3.6
99.8 ± 34 | – | O=C(O)CCCCCCC(=O)O [Suberic-acid] | 82.2 ± 2.5 | –
23 ± 2.4 | 58.3 ± 3.9 | OC[C@H]1O[C@H](O[C@]2(CCl)O[C@H](CCl)[C@@H](O)[C@@H]2O)[C@H](O)[C@@H](O)[C@H]1Cl [Sucralose] | 21.6 ± 1.4 | –
29.2 ± 6.4 | – | CC(=O)N(CCN(C(C)=O)C(C)=O)C(C)=O [Tetraacetylethylenediamine] | – | –
31.9 ± 3.7 | 39.7 ± 9 | COCCOCCOCCOCCOC [Tetraglyme] | 28.4 ± 3.6 | 76.1 ± 3.7
